Columns and labels:
Type in all cases: cell-based
TRPM8 = target: T1, TRPM8 (Homo sapiens, UniProt Q7Z2W7); assay: Calcium mobilization assay (HTS and dose-response) on HEK-293/hTRPM8 cells; conditions: for Max inhibition: HTS campaign, Cooling agent 10 30 μM, %inhibition values obtained at 10 mM (so in the source)
T1 construct: expressed in transfected cells
Description: All experiments were performed on HEK-293/hTRPM8 cells stably transfected with the human TRPM8 gene, except for site-directed mutagenesis analysis, which was performed on transient transfectants. In details, HEK-293 cells (ATCC, Manassas, Virginia) were transfected with the pcDNA3/hTRPM8 vector by electroporation (300 Volts, 950 µF) then selected with medium containing 0,8 mg/ml G418 for 10–15 days. Then the stable transfected pool underwent two rounds of limiting dilutions, in eight 96 well plates at a cell density of 1 cell/well, in order to obtain pure clones. The best responder clone was selected based on its response to 1 mM menthol in calcium mobilization experiments. HEK-293/hTRPM8 cells were maintained in EMEM (Minimum Essential Medium Eagle with Earl’s salts Balanced Salt Solution, LONZA) supplemented with 2 mM Ultraglutamine1 (Lonza), 1% Penicillin/Streptomycin (LONZA), 10% of Fetal Bovine Serum (Euroclone) and 0,4 mg/mL G418 (InvivoGen).
For calcium mobilization assays, cells were seeded at 10,000 cells/well in 384-well plates coated with poly-D-lysine (MATRIX black/clear bottom #4332-CPL, Thermo Scientific, Waltham, MA, USA) in complete medium.Twenty-four hours after seeding, the plates were washed with Tyrode’s buffer with a Bio-Tek-ELx405 Microplate Washer (Merck Millipore; Billerica, MA, USA), and then 10 µl/well of a solution containing the fluorescent Ca^2+ indicator Fluo-4 NW dye was added. Cells were incubated for 1 h at room temperature before test compounds were added at 3X the concentration with respect to the final wanted concentration to be tested with a FLIPR TETRA system (Molecular Devices, Sunnyvale, CA, USA). Calcium mobilization was monitored over a period of 5 min. A second injection of 10 µl/well of a reference agonist (icilin or Cooling agent 10) at 4X concentration in assay buffer was performed using the FLIPR TETRA system. Of note, for selectivity assays, the following agonists were used: 10 μM AITC (allyl isothiocyanate) for TRPA1; 100 nM Capsaicin for TRPV1; and 20 nM GSK1016790A for TRPV4.
After addition of the agonist, the fluorescence signal was recorded over the next 3 min. The bioactivity exerted by the compounds was expressed as a percentage of inhibition. The percentage scale is defined as follows: 100% inhibition was considered as the relative fluorescence units (RFUs) of the value of the MIN controls in the second injection (antagonist Capsazepine at IC100 = 50 µM) and 0% inhibition was considered as the RFU values of the value of the MAX controls in the second injection (Cooling agent 10 at EC80 = 30 µM). Data from four replicates were analyzed using GraphPad PRISM® software (version 5, GraphPad Software Inc.) to calculate the mean and standard error of the mean, to create sigmoidal concentration-response curves and to calculate IC50 values.

TRPM8 I746A = target: T2, TRPM8 I746A (Homo sapiens, UniProt Q7Z2W7, I746A); assay: Calcium mobilization on transiently transfected TRPM8 I746A mutant; conditions: agonist calcium response, I746A
T2 construct: expressed in transfected cells; host or cells: HEK-293, transient (Lipofectamine 2000)
From the text: (§1) Single point mutations were introduced in the hTRPM8-coding sequence, and the mutated TRPM8 was cloned as N-terminal c-myc tagged version into the pcDNA3 expression vector. This was done in that way that the single variations could be easily swapped from the myc-tagged expression construct into the non-tagged TRPM8 wild type expression construct.
(§2) The list of the variants is the following: variant 1, t2233g, a2234c (=Y745A); variant 2, a2236g, t2237c (=I746A); variant 3, a2395g, a2396c (=N799A) and variant 4, a2405c (D802A). The cloning project comprised three steps. First of all, a unique XhoI restriction site was inserted by site-directed mutagenesis (SDM) using DNA of the pcDNA3_TRPM8 construct as template. The 0.6 kb DNA fragment between the unique 5′ XhoI (introduced) and 3′ BamHI (already present) restriction sites comprised all positions of the four single point mutations and could be later used for their insertion as well as swapping between myc-tagged and non-tagged TRPM8 versions. In a second step, the c-myc tag sequence was introduced embedded within the TRPM8 coding sequence by PCR primers in two partially overlapping PCRs that were then joined by bridge PCR with the external 5′KpnI and internal 3′EcoRI primers and in the last step the point mutations 1 to 4 were inserted into pcDNA3_c-myc-TRPM8 by exchanging the wild type 5′XhoI-3′BamHI fragment (0.6 kb) with each of the corresponding variation fragment derived from synthetic DNA (provided by GeneArt, ThermoFisher Scientific).The myc-tagged constructs were transiently transfected in HEK-293 cells with Lipofectamine 2000 (Invitrogen) according to the manufacturer’s protocol. The pcDNA vectors containing the wt myc-tagged TRPM8 gene and the empty pcDNA3 (mock) were separately transfected into HEK-293 cells as controls. Cells were transfected and seeded on the same day at 17,500 cells/well in poly-D-lysine-coated 384-well plates (MATRIX #4332-CPL). Twenty-four hours after seeding, the activity of transfected TRPM8 receptors was tested using the calcium mobilization assay as described above. The analysis was performed on the basis of ΔF/F° (normalized MAX-MIN), where ΔF is the MAX between time points 117 and 182 minus the MIN between time points TP114 and TP116, and F° is the basal signal at time point TP0. The obtained data from at least four wells (as replicates) were analyzed with GraphPad PRISM® software (version 5, GraphPad Software Inc.) to calculate the mean and standard error of the mean[58], to create sigmoidal concentration-response curves and to calculate IC50 values.

TRPM8 N799A = target: T3, TRPM8 N799A (Homo sapiens, UniProt Q7Z2W7, N799A); assay: Calcium mobilization on transiently transfected TRPM8 N799A mutant; conditions: agonist calcium response, N799A
T3 construct: expressed in transfected cells; host or cells: HEK-293, transient (Lipofectamine 2000)
From the text: as §1, §2

TRPM8 Y745A = target: T4, TRPM8 Y745A (Homo sapiens, UniProt Q7Z2W7, Y745A); assay: Calcium mobilization on transiently transfected TRPM8 Y745A mutant; conditions: agonist calcium response
T4 construct: expressed in transfected cells; host or cells: HEK-293, transient (Lipofectamine 2000)
From the text: as §1
as §2, with “Cells were transfected and seeded on the same day at 17,500 cells/well in poly-D-lysine-coated 384-well plates (MATRIX #4332-CPL). Twenty-four hours after seeding, the activity of transfected TRPM8 receptors was tested using the calcium mobilization assay as described above. The analysis was performed on the basis of ΔF/F° (normalized MAX-MIN), where ΔF is the MAX between time points 117 and 182 minus the MIN between time points TP114 and TP116, and F° is the basal signal at time point TP0.” left out

wt TRPM8 = target: T5, wt TRPM8 (Homo sapiens, UniProt Q7Z2W7); assay: Calcium mobilization on HEK-293 cells transiently transfected with wt myc-tagged TRPM8; conditions: agonist calcium response, wt; read-out: pIC50 of the agonist (agonist dose response), wt TRPM8 (converted)
T5 construct: expressed in transfected cells; host or cells: HEK-293, transient (Lipofectamine 2000)
From the text: as §1
The list of the variants is the following: variant 1, t2233g, a2234c (=Y745A); variant 2, a2236g, t2237c (=I746A); variant 3, a2395g, a2396c (=N799A) and variant 4, a2405c (D802A). The cloning project comprised three steps. First of all, a unique XhoI restriction site was inserted by site-directed mutagenesis (SDM) using DNA of the pcDNA3_TRPM8 construct as template. The 0.6 kb DNA fragment between the unique 5′ XhoI (introduced) and 3′ BamHI (already present) restriction sites comprised all positions of the four single point mutations and could be later used for their insertion as well as swapping between myc-tagged and non-tagged TRPM8 versions. […] The obtained data from at least four wells (as replicates) were analyzed with GraphPad PRISM® software (version 5, GraphPad Software Inc.) to calculate the mean and standard error of the mean[58], to create sigmoidal concentration-response curves and to calculate IC50 values.

TRPM8 D802A = target: T6, TRPM8 D802A (Homo sapiens, UniProt Q7Z2W7, D802A); assay: Calcium mobilization on transiently transfected TRPM8 D802A mutant; conditions: agonist calcium response, D802A
T6 construct: expressed in transfected cells; host or cells: HEK-293, transient (Lipofectamine 2000)
From the text: as §1
as §2, with “Cells were transfected and seeded on the same day at 17,500 cells/well in poly-D-lysine-coated 384-well plates (MATRIX #4332-CPL). Twenty-four hours after seeding, the activity of transfected TRPM8 receptors was tested using the calcium mobilization assay as described above. The analysis was performed on the basis of ΔF/F° (normalized MAX-MIN), where ΔF is the MAX between time points 117 and 182 minus the MIN between time points TP114 and TP116, and F° is the basal signal at time point TP0.” left out

T2 sequence (Q7Z2W7 whole entry I746A): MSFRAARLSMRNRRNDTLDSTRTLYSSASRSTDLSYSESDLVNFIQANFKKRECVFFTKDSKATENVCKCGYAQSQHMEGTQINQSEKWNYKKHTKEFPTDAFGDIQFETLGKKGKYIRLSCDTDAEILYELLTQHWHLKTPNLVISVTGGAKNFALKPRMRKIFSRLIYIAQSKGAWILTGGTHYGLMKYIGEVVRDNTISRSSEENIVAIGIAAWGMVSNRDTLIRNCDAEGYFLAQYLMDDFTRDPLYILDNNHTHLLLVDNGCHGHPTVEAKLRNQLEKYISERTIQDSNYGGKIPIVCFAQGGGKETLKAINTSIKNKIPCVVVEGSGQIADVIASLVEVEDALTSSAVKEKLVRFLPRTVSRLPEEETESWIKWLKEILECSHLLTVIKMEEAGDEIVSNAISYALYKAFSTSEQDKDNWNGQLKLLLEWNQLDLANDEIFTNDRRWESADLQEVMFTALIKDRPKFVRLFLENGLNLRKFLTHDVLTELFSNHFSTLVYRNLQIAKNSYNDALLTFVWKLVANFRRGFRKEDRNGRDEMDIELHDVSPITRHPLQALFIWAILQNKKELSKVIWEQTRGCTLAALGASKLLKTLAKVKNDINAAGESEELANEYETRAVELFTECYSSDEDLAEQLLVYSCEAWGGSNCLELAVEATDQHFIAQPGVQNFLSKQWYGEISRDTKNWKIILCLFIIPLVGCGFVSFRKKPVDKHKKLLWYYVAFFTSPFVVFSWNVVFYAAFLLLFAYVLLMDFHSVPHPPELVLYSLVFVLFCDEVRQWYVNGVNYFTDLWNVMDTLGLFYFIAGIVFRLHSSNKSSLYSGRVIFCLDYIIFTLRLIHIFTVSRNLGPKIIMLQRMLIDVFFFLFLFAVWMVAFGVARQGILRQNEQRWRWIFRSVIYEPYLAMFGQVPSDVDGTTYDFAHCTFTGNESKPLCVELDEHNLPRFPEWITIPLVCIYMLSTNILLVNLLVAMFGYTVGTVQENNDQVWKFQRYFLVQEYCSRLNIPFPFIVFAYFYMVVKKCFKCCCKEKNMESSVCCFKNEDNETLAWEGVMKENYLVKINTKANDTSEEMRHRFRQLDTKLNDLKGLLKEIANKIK
T1 sequence (Q7Z2W7 whole entry): as the sequence (Q7Z2W7 whole entry I746A) above, with A746I counted along it
T4 sequence (Q7Z2W7 whole entry Y745A): as the sequence (Q7Z2W7 whole entry I746A) above, with Y745A, A746I counted along it
T3 sequence (Q7Z2W7 whole entry N799A): as the sequence (Q7Z2W7 whole entry I746A) above, with A746I, N799A counted along it
T6 sequence (Q7Z2W7 whole entry D802A): as the sequence (Q7Z2W7 whole entry I746A) above, with A746I, D802A counted along it
T5 sequence (Q7Z2W7 whole entry): as the sequence (Q7Z2W7 whole entry I746A) above, with A746I counted along it

Max inhibition (TRPM8)	Agonist activity on I746A mutant (words) (TRPM8 I746A)	Agonist activity on Y745A mutant (words) (TRPM8 Y745A)	SMILES	Agonist activity on N799A mutant (words) (TRPM8 N799A)	also measured
7.92%			O=C(NCOCc1ccc2ccccc2c1)c1cccnc1 [Compound 2]		
0.00%			O=C(NCOCc1ccc2ccccc2c1)c1cncc(Br)c1 [Compound 4]		
0.00%			O=C(COc1ccc2ccccc2c1)NCc1cccnc1 [Compound 3]		
	minimal residual activation	completely abolished the activation	CC1CCC(C(C)C)C(OCC(O)CO)C1 (stereo not drawn) [Cooling agent 10]	did not affect either maximal TRPM8 activation or EC50	Agonist activity on I746A mutant (words) (TRPM8 I746A; listed as Cooling Agent 10): strongly reduced agonist activity; EC80 (TRPM8; MAX control agonist): 30000 nM
	minimal residual activation	abrogated agonist activity	O=C1NC(c2cccc([N+](=O)[O-])c2)=CCN1c1ccccc1O [Icilin, icilin]	abrogated agonist activity	EC50 (TRPM8 I746A; read-out: pIC50 of the agonist (agonist dose response), I746A (converted)): 126 nM; Agonist activity on N799A mutant (words) (TRPM8 N799A; listed as icilin): completely abolished TRPM8 activation; Agonist activity on Y745A mutant (words) (TRPM8 Y745A; listed as icilin): completely abolished the activation; EC50 (wt TRPM8): 251 nM; Agonist activity on D802A mutant (words) (TRPM8 D802A): abrogated agonist activity; Agonist activity on D802A mutant (words) (TRPM8 D802A; listed as icilin): completely abolished TRPM8 activation
			Oc1cc2c(cc1O)CN(C(=S)NCCc1ccc(Cl)cc1)CCC2 [Capsazepine, reference compound]		IC100 (TRPM8; MIN control antagonist): 50 µM
